Experimental data taken from ChEMBL document CHEMBL6178010, “XPO1-Targeting Selective Inhibitors of Transcriptional Activation Suppress Graft-versus-Host Disease” (J Med Chem, 2025).
Calls of active or inactive are those of the source. No cut-off for these calls is given here.

What was measured:
Jurkat [1] = experiment: Cytotoxicity against human Jurkat cells assessed as suppression of cell viability incubated for 24 hrs by CellTiter-Glo assay; format: functional, cell-based
[2] = Metabolic stability in mouse liver microsome assessed as half life; format: ADME; conditions: liver microsomes
Jurkat [3] = experiment: Cytotoxicity against human Jurkat cells expressing XPO1 C528S mutant assessed as suppression of cell viability up to 1000 nM incubated for 24 hrs by CellTiter-Glo assay; format: functional, cell-based
Exportin-1 [4] = target: T1, Exportin-1 (Homo sapiens, UniProt O14980); experiment: Inhibition of XPO1 in PMA/ionomycin-activated human Jurkat cells expressing IL-2 promoter reporter gene assessed as suppression of IL-2 transcriptional activity incubated for 6 hrs by Bright-Glo Luciferase assay; format: cell-based
T1 sequence (O14980 whole entry): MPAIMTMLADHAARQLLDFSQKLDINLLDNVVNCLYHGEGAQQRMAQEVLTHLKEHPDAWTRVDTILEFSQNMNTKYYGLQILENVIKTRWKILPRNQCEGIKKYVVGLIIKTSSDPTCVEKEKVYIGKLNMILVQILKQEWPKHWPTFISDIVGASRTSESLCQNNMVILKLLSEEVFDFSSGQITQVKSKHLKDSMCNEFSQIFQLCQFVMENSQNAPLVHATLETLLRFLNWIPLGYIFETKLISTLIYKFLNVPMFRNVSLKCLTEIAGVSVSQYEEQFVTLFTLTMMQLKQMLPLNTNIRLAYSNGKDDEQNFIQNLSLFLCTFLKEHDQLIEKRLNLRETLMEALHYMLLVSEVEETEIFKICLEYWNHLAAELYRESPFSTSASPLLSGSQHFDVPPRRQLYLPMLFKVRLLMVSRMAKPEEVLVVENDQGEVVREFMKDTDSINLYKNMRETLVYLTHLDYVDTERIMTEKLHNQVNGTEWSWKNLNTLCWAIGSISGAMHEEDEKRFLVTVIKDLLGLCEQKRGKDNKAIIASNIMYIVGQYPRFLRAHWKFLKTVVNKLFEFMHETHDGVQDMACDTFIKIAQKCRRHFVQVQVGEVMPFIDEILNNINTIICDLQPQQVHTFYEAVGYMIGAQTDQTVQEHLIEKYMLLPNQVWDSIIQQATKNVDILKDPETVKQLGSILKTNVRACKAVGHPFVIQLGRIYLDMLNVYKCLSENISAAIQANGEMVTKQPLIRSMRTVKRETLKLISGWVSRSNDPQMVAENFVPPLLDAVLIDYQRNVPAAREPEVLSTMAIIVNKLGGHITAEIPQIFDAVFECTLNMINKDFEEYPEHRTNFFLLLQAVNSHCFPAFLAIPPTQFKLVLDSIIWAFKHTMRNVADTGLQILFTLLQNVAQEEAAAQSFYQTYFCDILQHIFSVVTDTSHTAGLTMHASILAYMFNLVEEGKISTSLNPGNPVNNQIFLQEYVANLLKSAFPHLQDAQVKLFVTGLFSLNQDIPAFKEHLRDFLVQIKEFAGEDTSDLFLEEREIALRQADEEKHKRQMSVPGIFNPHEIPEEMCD

XPO1 = experiment: Selectivity ratio of EC50 for cytotoxicity against human Jurkat cells assessed as suppression of cell viability to EC50 for inhibition of XPO1 in PMA/ionomycin-activated human Jurkat cells expressing IL-2 promoter reporter gene assessed as suppression of IL-2 transcriptional activity; format: toxicity, cell-based; conditions: read-out: Ratio EC50
Jurkat [5] = experiment: Downregulation of IL-2 mRNA level in PMA/ionomycin-activated human Jurkat cells expressing XPO1 C528S mutant at 100 nM incubated for 6 hrs by RT-qPCR analysis; format: functional, cell-based
[6] = Drug exposure in mouse administered intraperitoneally; format: ADME; conditions: in vivo, ip
[7] = Metabolic stability in mouse liver microsome assessed as intrinsic clearance; format: ADME; conditions: liver microsomes, read-out: CLH
Exportin-1 [8] = target: T1, Exportin-1; experiment: Inhibition of selinexor-alkyne binding to XPO1 at Cys528 in human Jurkat cells up to 300 nM pretreated for 1 hr followed by addition of selinexor-alkyne measured after 1 hr by In-gel fluorescence analysis; format: cell-based; conditions: time 2.0 hrs
Mus musculus [9] = experiment: Anti-inflammatory activity in irradiated BALB/c mouse transplanted with bone marrow/splenic T-cells from C57BL/6 mouse assessed as suppression of CD3 positive T-cell infiltration in host liver at 10 mg/kg, ip qd administered daily for 7 days by IHC analysis; format: functional, organism-based; conditions: time 7.0 day
Mus musculus [10] = experiment: Suppression of T-cell activation in irradiated BALB/c mouse transplanted with bone marrow/splenic T-cells from C57BL/6 mouse assessed as downregulation of IFNG in host spleen at 10 mg/kg, ip administered daily for 7 days by RT-qPCR analysis; format: functional, organism-based; conditions: time 7.0 day
[11] = Toxicity in mouse assessed as neutropenia at 10 mg/kg, ip administered daily for 5 days by CBC analysis; format: organism-based; conditions: in vivo, 120 h, time 5 day
Mus musculus [12] = experiment: Suppression of T-cell activation in irradiated BALB/c mouse transplanted with bone marrow/splenic T-cells from C57BL/6 mouse assessed as downregulation of CSF2 in host spleen at 10 mg/kg, ip administered daily for 7 days by RT-qPCR analysis; format: functional, organism-based; conditions: time 7.0 day
[13] = Toxicity in mouse assessed as leukopenia at 10 mg/kg, ip administered daily for 5 days by CBC analysis; format: organism-based; conditions: in vivo, 120 h, time 5 day

EC50 (Exportin-1 [4]) [nM]	SMILES	EC50 (Jurkat [1]) [nM]	selectivity ratio (XPO1)	further results
34	CC1=CC(=O)N(Nc2nc(N3CCCC3)nn3cccc23)C1=O	240	7.1	half-life [2]: > 60 min; Activity (Jurkat [3]): inactive; Activity (Jurkat [5]): inactive; Drug uptake [6]: Active; microsomal CLint [7]: < 23 µL/min/mg; inhibition (Exportin-1 [8]): Active
23	CC1=CC(=O)N(Nc2ccc(C(F)(F)F)c(N3CC(F)(F)C3)n2)C1=O	138	6	half-life [2]: < 10 min; microsomal CLint [7]: > 139 µL/min/mg
9.4	CC1=CC(=O)N(Nc2cc(C(F)(F)F)c(C(F)(F)F)cn2)C1=O	190	20.2	–
29.1	CC1=CC(=O)N(N(C)c2nc(N(C)CC3CC3)nn3cccc23)C1=O	187	6.4	half-life [2]: 8.5 min; microsomal CLint [7]: 163 µL/min/mg
46	CN(c1ccc(C(F)(F)F)c(N2CC(F)(F)C2)n1)N1CC=CC1=O	82	1.8	–
18	CC1=CC(=O)N(Nc2cc(C(F)(F)F)cc(C(F)(F)F)n2)C1=O	91	–	–
7.1	CC1=CC(=O)N(N(C)c2ccc(C(F)(F)F)c(N3CC(F)(F)C3)n2)C1=O	47	6.6	–
60	CC1=CC(=O)N(Nc2cc(N3CC(F)(F)C3)c(C(F)(F)F)cn2)C1=O	770	12.8	–
250	CC1=CC(=O)N(N(C)c2nc(N3CC(F)(F)C3)nn3cccc23)C1=O	2250	9	–
5.9	COc1cccc2nc(-c3cccs3)nc(NN3C(=O)C=C(C)C3=O)c12 [AS-602868]	30.2	5.1	half-life [2]: < 10 min; microsomal CLint [7]: > 139 µL/min/mg
2	CC1=CC(=O)N(Nc2ccc(C(F)(F)F)c(N3CCCC3)n2)C1=O	92	46	half-life [2]: < 10 min; microsomal CLint [7]: > 139 µL/min/mg
4.7	CC1=CC(=O)N(Nc2cc(C(F)(F)F)cc(N3CCCC3)n2)C1=O	26	5.5	–
107	CC1=CC(=O)N(Nc2nc(C3CC3)nn3cccc23)C1=O	347	3.2	–
40	CC1=CC(=O)N(Nc2ccc(F)c(N3CC(F)(F)C3)n2)C1=O	232	5.8	–
80.2	CC1=CC(=O)N(Nc2nc(N(C)C3CCCC3)nn3cccc23)C1=O	423	5.3	–
7.3	CC1=CC(=O)N(Nc2ccc(C(F)(F)F)c(N3CC4CC(C4)C3)n2)C1=O	38.1	5.2	–
44.7	CC1=CC(=O)N(Nc2nc(-c3cccs3)nn3cccc23)C1=O	170	3.8	–
170	CC1=CC(=O)N(Nc2nc(C3CCCC3)nn3cccc23)C1=O	955	5.6	–
61.5	CC1=CC(=O)N(N(C)c2nc(N3CCCCC3)nn3cccc23)C1=O	386	6.3	–
13	CC1=CC(=O)N(Nc2ccc(C(F)(F)F)c(N3CC4(CCC4)C3)n2)C1=O	82	6.3	–
9.7	CC1=CC(=O)N(N(C)c2ccc(C(F)(F)F)c(N3CCC(F)(F)CC3)n2)C1=O	75	7.7	–
550	CC1=CC(=O)N(Nc2nc(-c3ccno3)nn3cccc23)C1=O	5620	10.2	–
5.3	CC1=CC(=O)N(N(C)c2ccc(C(F)(F)F)c(N3CCCCC3)n2)C1=O	66	12.5	–
25	CO[C@@H]1CCN(c2nc(NN3C(=O)C=C(C)C3=O)ccc2C(F)(F)F)C1	400	16	–
20.4	CO[C@H]1CCN(c2nc(NN3C(=O)C=C(C)C3=O)ccc2C(F)(F)F)C1	492	24.1	–
963	CC1=C(C)C(=O)N(Nc2nc(C(F)(F)F)nn3cccc23)C1=O	920	0.96	–

EC50 (Exportin-1 [4]) [nM]	SMILES	EC50 (Jurkat [1]) [nM]	selectivity ratio (XPO1)	further results
–	CC1=CC(=O)N(Nc2cc(C(F)(F)F)cc(C(F)(F)F)c2)C1=O	–	–	Activity (Mus musculus [9]): Active; Activity (Mus musculus [10]): Active; Compound Showed Stronger Effect Than Sp100030; Activity [11]: Non-toxic; half-life [2]: > 60 min; Activity (Mus musculus [12]): Active; Compound Showed Stronger Effect Than Sp100030; Activity [13]: Non-toxic; Drug uptake [6]: Active; microsomal CLint [7]: < 23 µL/min/mg
222	CC1=CC(=O)N(Nc2nc(N3CCCC(F)(F)C3)nn3cccc23)C1=O	832	3.7	–
1820	CC1=CC(=O)N(Nc2ccc3cn[nH]c3n2)C1=O	6310	3.5	–
11	CC1=CC(=O)N(N(C)c2ccc(C(F)(F)F)c(N3CCCC(F)(F)C3)n2)C1=O	70.9	6.4	–
30.1	CC1=CC(=O)N(Nc2nc(N3CCCCC3)nn3cccc23)C1=O	148	4.9	–
2.5	CC1=CC(=O)N(N(C)c2ccc(C(F)(F)F)c(N3CCCCCC3)n2)C1=O	35.9	14.4	–
12	CC1=CC(=O)N(Nc2ccc(C(F)(F)F)c(C3CCCC3)n2)C1=O	34	2.8	half-life [2]: < 10 min; microsomal CLint [7]: > 139 µL/min/mg
76	CC1=CC(=O)N(Nc2nc(Cl)nn3cccc23)C1=O	813	10.7	–
447	CC1=CC(=O)N(Nc2ccc(C(F)(F)F)c(-n3ccnc3)n2)C1=O	1900	4.2	–
156	CC1=CC(=O)N(Nc2ncc(C(F)(F)F)c(Cl)n2)C1=O	338	2.2	half-life [2]: 19.9 min; microsomal CLint [7]: 70 µL/min/mg
66.2	CC1=CC(=O)N(Nc2nc(-c3ccccc3)nn3cccc23)C1=O	410	6.2	half-life [2]: 75 min; microsomal CLint [7]: 19 µL/min/mg
–	O=C(Nc1cc(C(F)(F)F)cc(C(F)(F)F)c1)c1cnc(Cl)nc1C(F)(F)F	–	–	half-life [2]: < 10 min; microsomal CLint [7]: > 139 µL/min/mg
61	COCC#Cc1cc(NN2C(=O)C=C(C)C2=O)cc(C(F)(F)F)c1	696	11.4	–
58	CC1=CC(=O)N(Nc2nc(N3CC(F)(F)C3)nn3cccc23)C1=O	447	7.7	–
9	CC1=CC(=O)N(Nc2nc(Cl)c(C(F)(F)F)cc2F)C1=O	30	3.3	half-life [2]: 11.4 min; microsomal CLint [7]: 121 µL/min/mg
251	CC1=CC(=O)N(Nc2nc(-c3ccnn3C)nn3cccc23)C1=O	1320	5.3	–
209	CC1=CC(=O)N(N(C)c2nc(N3CCCC(F)(F)C3)nn3cccc23)C1=O	4290	20.5	–
1.5	CC1=CC(=O)N(Nc2ccc(C(F)(F)F)c(Cl)c2)C1=O	8.6	5.7	–
11	CC1=CC(=O)N(Nc2ccc(C(F)(F)F)c(N3CCC3)n2)C1=O	434	39.5	half-life [2]: < 10 min; microsomal CLint [7]: > 139 µL/min/mg
1630	CC1=CC(=O)N(Nc2ccc(C(F)(F)F)c(N3CCCC3=O)n2)C1=O	4790	2.9	–
–	CC1=CC(=O)N(Nc2ccc(C(F)(F)F)c(Cl)n2)C1=O	–	–	half-life [2]: 26.1 min; microsomal CLint [7]: 53 µL/min/mg
37	CNc1nc(NN2C(=O)C=C(C)C2=O)ccc1C(F)(F)F	661	17.9	–
95.7	CC1=CC(=O)N(N(C)c2nc(N(C)C3CCCC3)nn3cccc23)C1=O	418	4.4	–
60.4	CC1=CC(=O)N(Nc2nc(N(C)CC3CC3)nn3cccc23)C1=O	329	5.4	half-life [2]: 2.6 min; microsomal CLint [7]: 528 µL/min/mg
724	CC1=CC(=O)N(Nc2ccc(C(F)(F)F)c(-c3ccnn3C)n2)C1=O	1740	2.4	–
